Results on 25 compounds are retold here after patent US20250084078A1, “FUSED RING-SUBSTITUTED SIX-MEMBERED HETEROCYCLIC COMPOUND, AND PREPARATION METHOD THEREFOR AND USE THEREOF” (GENFLEFT THERAPEUTICS (SHANGHAI) INC., priority 2022, published 2025).

In experiment [1] the target is T1, HPK1 (Homo sapiens, UniProt Q92918).
T1 sequence (Q92918 1-346): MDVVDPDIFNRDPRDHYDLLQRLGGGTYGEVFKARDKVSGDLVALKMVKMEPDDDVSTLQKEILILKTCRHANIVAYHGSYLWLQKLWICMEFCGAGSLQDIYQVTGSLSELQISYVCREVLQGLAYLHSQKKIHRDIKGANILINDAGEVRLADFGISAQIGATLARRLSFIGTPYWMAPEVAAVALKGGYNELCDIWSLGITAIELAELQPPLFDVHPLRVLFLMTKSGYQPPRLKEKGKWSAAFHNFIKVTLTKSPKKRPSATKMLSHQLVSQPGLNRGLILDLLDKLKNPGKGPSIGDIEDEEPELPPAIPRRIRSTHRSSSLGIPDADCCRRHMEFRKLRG
The experiment can be described thus: HPK1 kinase activity assay (ADP-Glo). The settings on record: 1 nM HPK1, 10 μM ATP, 0.1 μg/μL MBP. On the technique in general: ADP-Glo turns the ADP formed in a reaction into a luminescent signal.

For experiment [2], the target named is HPK1 (Homo sapiens, UniProt Q92918). The experiment in a line: SLP76 phosphorylation assay (intracellular HPK1 inhibitory activity, p-SLP76 S376 ELISA in Jurkat cells). To be noted: Clone E6-1 cells, 1 h compound pre-incubation, anti-CD3 beads stimulation 20 min, Phospho-SLP-76 (Ser376) ELISA. For orientation: In an ELISA, binding on a coated surface is turned into a signal by an enzyme label.
Target sequence in this assay (Q92918 whole entry): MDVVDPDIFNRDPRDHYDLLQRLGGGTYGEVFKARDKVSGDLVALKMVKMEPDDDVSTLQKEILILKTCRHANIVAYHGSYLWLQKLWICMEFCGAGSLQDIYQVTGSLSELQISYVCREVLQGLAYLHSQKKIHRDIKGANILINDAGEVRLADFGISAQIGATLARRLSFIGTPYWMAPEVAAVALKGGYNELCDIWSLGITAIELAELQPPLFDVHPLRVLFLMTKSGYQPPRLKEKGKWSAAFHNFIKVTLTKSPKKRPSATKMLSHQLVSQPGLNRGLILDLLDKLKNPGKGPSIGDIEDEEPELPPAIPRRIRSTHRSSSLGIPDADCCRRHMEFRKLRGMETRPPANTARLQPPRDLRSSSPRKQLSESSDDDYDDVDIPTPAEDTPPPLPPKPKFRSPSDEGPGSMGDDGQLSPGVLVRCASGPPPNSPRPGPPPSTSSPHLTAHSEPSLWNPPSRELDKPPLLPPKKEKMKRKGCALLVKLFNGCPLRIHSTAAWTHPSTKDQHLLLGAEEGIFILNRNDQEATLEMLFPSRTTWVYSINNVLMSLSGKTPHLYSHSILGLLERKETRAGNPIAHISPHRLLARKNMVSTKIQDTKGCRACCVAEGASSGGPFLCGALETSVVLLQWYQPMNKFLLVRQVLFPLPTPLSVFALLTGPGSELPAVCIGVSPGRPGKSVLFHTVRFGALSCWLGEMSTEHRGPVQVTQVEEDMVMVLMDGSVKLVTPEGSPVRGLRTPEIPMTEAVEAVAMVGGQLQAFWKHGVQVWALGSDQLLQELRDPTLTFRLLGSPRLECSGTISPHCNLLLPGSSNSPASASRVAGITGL

The mark [3] stands for this setting: HPK1 Kinase activity IC50, ADP-Glo.
Setting [4] is: read-out: HPK1 Kinase activity IC50, ADP-Glo.

Turning to `Cc1c[nH]c2ncc(-c3cc4c(c([C@@H]5COCCN5)c3)CN(C(=O)C(C)(C)O)CC4)nc12` [Compound Z507, (R)-1-(6-(7-methyl-5H-pyrrolo[2,3-b]pyrazin-2-yl)-8-(morpholin-3-yl)-3,4-dihydroisoquinolin-2(1H)-yl)-2-hydroxy-2-methylpropan-1-one], the IC50 at HPK1 [1] (setting [3]) was determined as 0.43 nM; on HPK1 [2] (p-SLP76 IC50, Jurkat) it was 119 nM.
`CCc1c(Cl)[nH]c2ncc(-c3cc4c(c([C@@H]5COCCN5)c3)CN(C(=O)C(C)(C)O)CC4)cc12` [Compound Z422, (R)-1-(6-(2-chloro-3-ethyl-1H-pyrrolo[2,3-b]pyridin-5-yl)-8-(morpholin-3-yl)-3,4-dihydroisoquinolin-2(1H)-yl)-2-hydroxy-2-methylpropan-1-one]: the concentration for half-maximal inhibition (IC50) worked out at 0.72 nM against HPK1 [1] (setting [3]) and 349 nM against HPK1 [2] (p-SLP76 IC50, Jurkat).
On the same counts, the results for `Cc1c[nH]c2ncc(-c3cc4c(c([C@@H]5COCCN5)c3)CN(C(=O)N3C[C@@H]5CC[C@H]3CO5)CC4)cc12` (single isomer, unassigned) [Compound Z644] are 0.25 nM and 61.6 nM.
Take `Cc1c[nH]c2ncc(-c3cc4c(c([C@@H]5COCCN5)c3)CN(C(=O)N3CC5CCC(C3)O5)CC4)cc12` [Compound Z451, (8-oxa-3-azabicyclo[3.2.1]octan-3-yl)(6-(3-methyl-1H-pyrrolo[2,3-b]pyridin-5-yl)-8-((R)-morpholin-3-yl)-3,4-dihydroisoquinolin-2(1H)-yl)methanone]: the half-inhibitory concentration (IC50) was 0.11 nM at HPK1 [1] (setting [3]) and 44.2 nM on HPK1 [2] (p-SLP76 IC50, Jurkat).
On the same counts, the results for `Cc1c[nH]c2ncc(-c3cc4c(c([C@@H]5COCCN5)c3)CN(C(=O)N3C[C@H](C)O[C@@H](C)C3)CC4)cc12` [Compound Z512, ((2S,6S)-2,6-dimethylmorpholine)(6-(3-methyl-1H-pyrrolo[2,3-b]pyridin-5-yl)-8-((R)-morpholin-3-yl)-3,4-dihydroisoquinolin-2-1H-yl)methanone] are 0.35 nM and 148 nM.
For `Cc1c[nH]c2ncc(-c3cc4c(c([C@@H]5CCCN5)c3)CN(C(=O)CC3CC3)CC4)cc12` [Compound Z220, (S)-2-cyclopropyl-1-(6-(3-methyl-1H-pyrrolo[2,3-b]pyridin-5-yl)-8-(pyrrolidin-2-yl)-3,4-dihydroisoquinolin-2(1H)-yl)ethanone], the 50% inhibitory concentration (IC50) came to 2.26 nM on HPK1 [1] (setting [4]) and 469 nM on HPK1 [2] (read-out: p-SLP76 IC50, Jurkat).
On to `Cc1c[nH]c2ncc(-c3cc4c(c([C@@H]5COCCN5)c3)CN(C(=O)C3(O)CCOCC3)CC4)cc12` [Compound Z450], for which the IC50 against HPK1 [1] (setting [3]) turned out to be 0.22 nM; on HPK1 [2] (p-SLP76 IC50, Jurkat) it was 158 nM.
In the same order, the values of `Cc1c[nH]c2ncc(-c3cc4c(c([C@@H]5COCCN5)c3)CN(C(=O)C3CCOCC3)CC4)cc12` [Compound Z375] are 0.59 nM and 258 nM.
On the same counts, the results for `CC(C)c1c[nH]c2ncc(-c3cc4c(c([C@@H]5CCCN5)c3)CN(C(=O)C(C)(C)O)CC4)cc12` [Compound Z416, (S)-2-hydroxy-1-(6-(3-isopropyl-1H-pyrrolo[2,3-b]pyridin-5-yl)-8-(pyrrolidin-2-yl)-3,4-dihydroisoquinolin-2(1H)-yl)-2-methylpropan-1-one] are 0.29 nM and 63.1 nM.
On the same counts, the results for `Cc1c[nH]c2ncc(-c3cc4c(c([C@@H]5COCCN5)c3)CN(C(=O)N3CCOC[C@@H]3C)CC4)cc12` [Compound Z581, (6-(3-methyl-1H-pyrrolo[2,3-b]pyridin-5-yl)-8-((R)-morpholin-3-yl)-3,4-dihydroisoquinolin-2(1H)-yl)((S)-3-methylmorpholino)methanone] are 0.24 nM and 86.7 nM.
As to `O=C(N1CCc2cc(-c3cnc4[nH]cc(Cl)c4c3)cc([C@@H]3COCCN3)c2C1)N1C[C@H]2C[C@@H]1CO2` [Compound Z608, ((1R,4R)-2-oxa-5-azabicyclo[2.2.1]heptan-5-yl)(6-(3-chloro-1H-pyrrolo[2,3-b]pyridin-5-yl)-8-((R)-morpholin-3-yl)-3,4-dihydroisoquinolin-2(1H)-yl)methanone], the IC50 against HPK1 [1] (setting [3]) came out at 0.27 nM; at HPK1 [2] (p-SLP76 IC50, Jurkat), 67.1 nM.
For `Cc1c[nH]c2ncc(-c3cc4c(c([C@@H]5COCCN5)c3)CN(C(=O)N3CC5CCC3CO5)CC4)cc12` (stereo partly drawn) [Compound Z457, (2-oxa-5-azabicyclo[2.2.2]octan-5-yl)(6-(3-methyl-1H-pyrrolo[2,3-b]pyridin-5-yl)-8-((R)-morpholin-3-yl)-3,4-dihydroisoquinolin-2(1H)-yl)methanone], the IC50 is 0.14 nM at HPK1 [1] (setting [3]) and 60.9 nM against HPK1 [2] (p-SLP76 IC50, Jurkat).
Take `Cc1c[nH]c2ncc(-c3cc4c(c([C@@H]5COCCN5)c3)CCN(C(=O)C3CCOCC3)C4)cc12` [Compound Z377, (R)-(7-(3-methyl-1H-pyrrolo[2,3-b]pyridin-5-yl)-5-(morpholin-3-yl)-3,4-dihydroisoquinolin-2(1H)-yl)(tetrahydro-2H-pyran-4-yl)methanone]: the IC50 stood at 0.28 nM against HPK1 [1] (setting [3]) and 190 nM at HPK1 [2] (p-SLP76 IC50, Jurkat).
For the compound `CC(C)(O)C(=O)N1CCc2cc(-c3cnc4[nH]cc(F)c4c3)cc([C@@H]3COCCN3)c2C1` [Compound Z445, (R)-1-(6-(3-fluoro-1H-pyrrolo[2,3-b]pyridin-5-yl)-8-(morpholin-3-yl)-3,4-dihydroisoquinolin-2(1H)-yl)-2-hydroxy-2-methylpropan-1-one], the concentration for half-maximal inhibition (IC50) against HPK1 [1] (setting [3]) is 0.85 nM; against HPK1 [2] (p-SLP76 IC50, Jurkat), 253 nM.
Take `Cc1c[nH]c2ncc(-c3cc4c(c([C@@H]5COCCN5)c3)CN(C(=O)N3C[C@H]5C[C@@H]3CO5)CC4)cc12` [Compound Z518]: the IC50 at HPK1 [1] (setting [3]) was determined as 0.22 nM; against HPK1 [2] (p-SLP76 IC50, Jurkat), 130 nM.
In the same order, the values of `Cc1c[nH]c2ncc(-c3cc4c(c([C@@H]5COCCN5)c3)CN(C(=O)N3C5CCC3COC5)CC4)cc12` [Compound Z492, (3-oxa-8-azabicyclo[3.2.1]octan-8-yl)(6-(3-methyl-1H-pyrrolo[2,3-b]pyridin-5-yl)-8-((R)-morpholin-3-yl)-3,4-dihydroisoquinolin-2(1H)-yl)methanone] are 0.18 nM and 95.7 nM.
In the case of `Cc1c[nH]c2ncc(-c3cc4c(c([C@@H]5COCCN5)c3)CN(C(=O)C(C)(C)O)CC4)cc12` [Compound Z372, (R)-2-hydroxy-2-methyl-1-[6-(3-methyl-1H-pyrrolo[2,3-b]pyridin-5-yl)-8-[morphin-3-yl]-3,4-dihydroisoquinolin-2(1H)-yl]propan-1-one], the 50% inhibitory concentration (IC50) is 0.18 nM at HPK1 [1] (setting [3]) and 106 nM at HPK1 [2] (p-SLP76 IC50, Jurkat).
As for `Cc1c[nH]c2ncc(-c3cc4c(c([C@@H]5COCCN5)c3)CN(C(=O)N3CC(O)CC3(C)C)CC4)cc12` (some centres unmarked) [Compound Z577], the IC50 turned out to be 0.25 nM against HPK1 [1] (setting [3]) and 78.1 nM on HPK1 [2] (p-SLP76 IC50, Jurkat).
Regarding `Cc1c[nH]c2ncc(-c3cc4c(c([C@@H]5COCCN5)c3)CN(C(=O)[C@](C)(O)C(F)(F)F)CC4)nc12` [Compound Z568, (S)-3,3,3-trifluoro-2-hydroxy-2-methyl-1-(6-(7-methyl-5H-pyrrolo[2,3-b]pyrazin-2-yl)-8-((R)-morpholin-3-yl)-3,4-dihydroisoquinolin-2(1H)-yl)propan-1-one], the IC50 against HPK1 [1] (setting [3]) is 0.33 nM; against HPK1 [2] (p-SLP76 IC50, Jurkat), 66.2 nM.
On the same counts, the results for `CC(C)(O)C(=O)N1CCc2cc(-c3cnc4[nH]cc(C(F)(F)F)c4c3)cc([C@@H]3COCCN3)c2C1` [Compound Z473, (R)-2-hydroxy-2-methyl-1-(8-(morpholin-3-yl)-6-(3-(trifluoromethyl)-1H-pyrrolo[2,3-b]pyridin-5-yl)-3,4-dihydroisoquinolin-2(1H)-yl)propan-1-one] are 0.24 nM and 143 nM.
In the same order, the values of `CCc1c[nH]c2ncc(-c3cc4c(c([C@@H]5COCCN5)c3)CN(C(=O)N3CCOCC3)CC4)cc12` [Compound Z448, (R)-(6-(3-ethyl-1H-pyrrolo[2,3-b]pyridin-5-yl)-8-(morpholin-3-yl)-3,4-dihydroisoquinolin-2(1H)-yl)(morpholine)methanone] are 0.29 nM and 120 nM.
In the same order, the values of `Cc1c[nH]c2ncc(-c3cc4c(c([C@@H]5COCCN5)c3)CN(C(=O)N3CCC(F)CC3)CC4)nc12` [Compound Z566, (R)-(4-fluoropiperidin-1-yl)(6-(7-methyl-5H-pyrrolo[2,3-b]pyrazin-2-yl)-8-(morpholin-3-yl)-3,4-dihydroisoquinolin-2(1H)-yl)methanone] are 0.24 nM and 81.8 nM.
On to `CC(C)(O)C(=O)N1CCc2cc(-c3cnc4[nH]cc(Cl)c4c3)cc([C@@H]3CCCN3)c2C1` [Compound Z496], for which the IC50 on HPK1 [1] (setting [3]) is 0.22 nM; at HPK1 [2] (p-SLP76 IC50, Jurkat), 62.7 nM.
In the same order, the values of `Cc1c[nH]c2ncc(-c3cc4c(c([C@@H]5CCCN5)c3)CN(C(=O)c3cc(C5CC5)nn3C)CC4)cc12` [Compound Z493, (S)-(3-cyclopropyl-1-methyl-1H-pyrazol-5-yl)-[6-(3-methyl-1H-pyrrolo[2,3-b]pyridin-5-yl)-8-[pyrrolidin-5-yl]-3,4-dihydroisoquinolin-2(1H)-yl]methanone] are 0.41 nM and 295 nM.
Take “5-(8-(4-fluoropyrrolidin-2-yl)isochromen-6-yl)-3-methyl-1H-pyrrolo[2,3-b]pyridine [Compound Z367-1]”: the IC50 on HPK1 [1] (setting [4]) is 1.44 nM; at HPK1 [2] (read-out: p-SLP76 IC50, Jurkat), 999 nM.

As usually defined, the IC50 is the midpoint of a concentration-inhibition curve.
